Experimental data: patent publication EP3623369A1, “NOVEL MORPHOLINYL AMINE COMPOUNDS FOR THE TREATMENT OF AUTOIMMUNE DISEASE” (F. Hoffmann-La Roche AG, priority 2018, dated 2020)

biological target: T1, human TLR8 (Homo sapiens, UniProt Q9NR97); assay: HEK293-Blue-hTLR-8 cells assay (SEAP reporter, R848 stimulation); format: cell-based; conditions: HEK293-Blue-hTLR8 cells, R848, 20 hrs; 0.003 is the lowest tested concentration; read-out: HEK/hTLR8 IC50
T1 sequence (Q9NR97 27-1041): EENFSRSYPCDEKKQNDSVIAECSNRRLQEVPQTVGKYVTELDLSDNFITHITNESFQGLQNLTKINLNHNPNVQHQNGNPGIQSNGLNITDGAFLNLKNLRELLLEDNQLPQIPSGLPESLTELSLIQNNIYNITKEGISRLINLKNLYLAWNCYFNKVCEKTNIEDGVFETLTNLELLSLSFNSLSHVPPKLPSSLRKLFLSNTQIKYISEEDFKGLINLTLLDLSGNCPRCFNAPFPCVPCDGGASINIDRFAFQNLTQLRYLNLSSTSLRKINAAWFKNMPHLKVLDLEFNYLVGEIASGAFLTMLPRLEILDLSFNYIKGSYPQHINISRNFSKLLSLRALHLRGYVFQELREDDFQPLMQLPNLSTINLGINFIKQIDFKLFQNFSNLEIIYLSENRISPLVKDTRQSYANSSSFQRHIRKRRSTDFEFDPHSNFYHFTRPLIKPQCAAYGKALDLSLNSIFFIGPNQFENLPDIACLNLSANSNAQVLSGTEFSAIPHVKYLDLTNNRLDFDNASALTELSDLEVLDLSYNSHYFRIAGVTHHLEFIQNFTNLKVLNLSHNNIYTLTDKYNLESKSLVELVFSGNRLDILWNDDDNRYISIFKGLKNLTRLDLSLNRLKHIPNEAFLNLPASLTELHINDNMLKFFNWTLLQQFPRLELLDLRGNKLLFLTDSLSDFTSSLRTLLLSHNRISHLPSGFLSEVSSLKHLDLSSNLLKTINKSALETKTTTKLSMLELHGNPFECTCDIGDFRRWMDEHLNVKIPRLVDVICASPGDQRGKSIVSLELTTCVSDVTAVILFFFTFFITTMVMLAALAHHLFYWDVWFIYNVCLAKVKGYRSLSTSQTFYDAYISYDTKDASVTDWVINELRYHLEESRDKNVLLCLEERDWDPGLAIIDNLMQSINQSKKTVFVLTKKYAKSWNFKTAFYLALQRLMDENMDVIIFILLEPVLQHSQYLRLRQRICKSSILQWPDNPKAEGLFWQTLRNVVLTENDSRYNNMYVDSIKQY
Description: The following tests were carried out in order to determine the activity of the compounds of formula (I) or (Ia) in HEK293-Blue-hTLR-7/8/9 cells assay.
HEK293-Blue-hTLR-8 cells assay:
A stable HEK293-Blue-hTLR-8 cell line was purchased from InvivoGen (Cat.#: hkb-htlr8, San Diego, California, USA). These cells were originally designed for studying the stimulation of human TLR8 by monitoring the activation of NF-κB. A SEAP (secreted embryonic alkaline phosphatase) reporter gene was placed under the control of the IFN-β minimal promoter fused to five NF-κB and AP-1-binding sites. The SEAP was induced by activating NF-κB and AP-1 via stimulating HEK-Blue hTLR8 cells with TLR8 ligands. Therefore the reporter expression was declined by TLR8 antagonist under the stimulation of a ligand, such as R848, for incubation of 20 hrs. The cell culture supernatant SEAP reporter activity was determined using QUANTI-Blue™ kit (Cat.#: rep-qb1, Invivogen, San Diego, Ca, USA) at a wavelength of 640 nm, a detection medium that turns purple or blue in the presence of alkaline phosphatase.
HEK293-Blue-hTLR8 cells were incubated at a density of 250,000∼450,000 cells/mL in a volume of 170 µL in a 96-well plate in Dulbecco's Modified Eagle's medium (DMEM) containing 4.5 g/L glucose, 50 U/mL penicillin, […], […], 2 mM L-glutamine, 10% (v/v) heat-inactivated fetal bovine serum with addition of 20 µL test compound in a serial dilution in the presence of final DMSO at 1% and 10 µL of 60uM R848 in above DMEM, perform incubation under 37 °C in a CO2 incubator for 20 hrs. Then 20 µL of the supernatant from each well was incubated with 180 µL Quanti-blue substrate solution at 37°C for 2 hrs and the absorbance was read at 620∼655 nm using a spectrophotometer. The signalling pathway that TLR8 activation leads to downstream NF-κB activation has been widely accepted, and therefore similar reporter assay was modified for evaluating TLR8 antagonist.

Structure (SMILES)	IC50
C[C@@H]1CN(c2ccc(C#N)n3nccc23)C[C@H](CNCc2ccc(N3CCNCC3)cc2)O1 [Example 16, 4-[(2R,6S)-2-methyl-6-[[(4-piperazin-1-ylphenyl)methylamino]methyl]morpholin-4-yl]pyrazolo[1,5-a]pyridine-7-carbonitrile]	16 nM
C[C@@H]1CN(c2ccc(C#N)n3nccc23)C[C@H](CN2Cc3ccc(N4CCN(C)CC4)cc3C2)O1 [Example 17, 4-[(2R,6S)-2-methyl-6-[[5-(4-methylpiperazin-1-yl)isoindolin-2-yl]methyl]morpholin-4-yl]pyrazolo[1,5-a]pyridine-7-carbonitrile]	52 nM
C[C@@H]1CN(c2ccc(C#N)n3nccc23)C[C@H](CN2Cc3cc(N4CCNCC4)cnc3C2)O1 [Example 18, 4-[(2R,6S)-2-methyl-6-[(3-piperazin-1-yl-5,7-dihydropyrrolo[3,4-b]pyridin-6-yl)methyl]morpholin-4-yl]pyrazolo[1,5-a]pyridine-7-carbonitrile]	31 nM
C[C@@H]1CN(c2ccc(C#N)c3ncccc23)C[C@H](CN2CCc3cc(N4CCNCC4)ccc3C2)O1 [Example 19, 5-[(2R,6S)-2-methyl-6-[(6-piperazin-1-yl-3,4-dihydro-1H-isoquinolin-2-yl)methyl]morpholin-4-yl]quinoline-8-carbonitrile]	6 nM
C[C@@H]1CN(c2ccc(C#N)c3ncccc23)C[C@H](CN2Cc3cc(N4CCNCC4)cnc3C2)O1 [Example 20, 5-[(2R,6S)-2-methyl-6-[(3-piperazin-1-yl-5,7-dihydropyrrolo[3,4-b]pyridin-6-yl)methyl]morpholin-4-yl]quinoline-8-carbonitrile]	4 nM
C[C@@H]1CN(c2ccc(C#N)c3ncccc23)C[C@H](CN2Cc3ccc(N4CCNCC4)cc3C2)O1 [Example 21, 5-[(2R,6S)-2-methyl-6-[(5-piperazin-1-ylisoindolin-2-yl)methyl]morpholin-4-yl]quinoline-8-carbonitrile]	5 nM
C[C@@H]1CN(c2ccc(C#N)c3ncsc23)C[C@H](CN2Cc3ccc(N4CCNCC4)cc3C2)O1 [Example 23, 7-[(2R,6S)-2-methyl-6-[(5-piperazin-1-ylisoindolin-2-yl)methyl]morpholin-4-yl]-1,3-benzothiazole-4-carbonitrile]	< 3 nM
C[C@@H]1CN(c2ccc(C#N)c3ncsc23)C[C@H](CN2CCc3cc(N4CCNCC4)ccc3C2)O1 [Example 24, 7-[(2R,6S)-2-methyl-6-[(6-piperazin-1-yl-3,4-dihydro-1H-isoquinolin-2-yl)methyl]morpholin-4-yl]-1,3-benzothiazole-4-carbonitrile]	4 nM
C[C@@H]1CN(c2ccc(C#N)c3nccnc23)C[C@H](CN2Cc3ccc(N4C5CCC4CNC5)cc3C2)O1 [Example 41, 8-[(2S,6R)-2-[[5-(3,8-diazabicyclo[3.2.1]octan-8-yl)isoindolin-2-yl]methyl]-6-methyl-morpholin-4-yl]quinoxaline-5-carbonitrile]	9 nM

Further lines, results first:

IC50	Structure (SMILES)
< 3 nM	C[C@@H]1CN(c2ccc(C#N)c3ncsc23)C[C@H](CN2Cc3cc(N4CCNCC4)cnc3C2)O1 [Example 25, 7-[(2R,6S)-2-methyl-6-[(3-piperazin-1-yl-5,7-dihydropyrrolo[3,4-b]pyridin-6-yl)methyl]morpholin-4-yl]-1,3-benzothiazole-4-carbonitrile]
58 nM	C[C@@H]1CN(c2ccc(C#N)n3nccc23)C[C@H](CN2Cc3ccc(OCCN(C)C)cc3C2)O1 [Example 28, 4-[(2S,6R)-2-[[5-[2-(dimethylamino)ethoxy]isoindolin-2-yl]methyl]-6-methyl-morpholin-4-yl]pyrazolo[1,5-a]pyridine-7-carbonitrile]
14 nM	C[C@@H]1CN(c2ccc(C#N)n3ncc(F)c23)C[C@H](CN2Cc3cc(N4CCNCC4)cnc3C2)O1 [Example 29, 3-fluoro-4-[(2R,6S)-2-methyl-6-[(3-piperazin-1-yl-5,7-dihydropyrrolo[3,4-b]pyridin-6-yl)methyl]morpholin-4-yl]pyrazolo[1,5-a]pyridine-7-carbonitrile]
3 nM	C[C@@H]1CN(c2ccc(C#N)c3nccnc23)C[C@H](CN2Cc3cc(N4CCNCC4)cnc3C2)O1 [Example 30, 8-[(2R,6S)-2-methyl-6-[(3-piperazin-1-yl-5,7-dihydropyrrolo[3,4-b]pyridin-6-yl)methyl]morpholin-4-yl]quinoxaline-5-carbonitrile]
13 nM	C[C@@H]1CN(c2ccc(Cl)c3ncccc23)C[C@H](CN2Cc3ccc(N4CCNCC4)cc3C2)O1 [Example 31, (2R,6S)-4-(8-chloro-5-quinolyl)-2-methyl-6-[(5-piperazin-1-ylisoindolin-2-yl)methyl]morpholine]
17 nM	C[C@@H]1CN(c2ccc(Cl)c3ncccc23)C[C@H](CN2CCc3cc(N4CCNCC4)ccc3C2)O1 [Example 32, (2R,6S)-4-(8-chloro-5-quinolyl)-2-methyl-6-[(6-piperazin-1-yl-3,4-dihydro-1H-isoquinolin-2-yl)methyl]morpholine]
5 nM	C[C@@H]1CN(c2ccc(Cl)c3nccnc23)C[C@H](CN2Cc3ccc(N4CCNCC4)cc3C2)O1 [Example 33, (2R,6S)-4-(8-chloroquinoxalin-5-yl)-2-methyl-6-[(5-piperazin-1-ylisoindolin-2-yl)methyl]morpholine]
5 nM	C[C@@H]1CN(c2ccc(Cl)c3nccnc23)C[C@H](CN2CCc3cc(N4CCNCC4)ccc3C2)O1 [Example 34, (2R,6S)-4-(8-chloroquinoxalin-5-yl)-2-methyl-6-[(6-piperazin-1-yl-3,4-dihydro-1H-isoquinolin-2-yl)methyl]morpholine]
9 nM	C[C@@H]1CN(c2ccc(C#N)c3nccnc23)C[C@H](CN2Cc3ccc(N4CCN(C5CC5)CC4)cc3C2)O1 [Example 35, 8-[(2S,6R)-2-[[5-(4-cyclopropylpiperazin-1-yl)isoindolin-2-yl]methyl]-6-methyl-morpholin-4-yl]quinoxaline-5-carbonitrile]
< 3 nM	CC1CN(c2ccc3c(c2)CN(C[C@H]2CN(c4ccc(C#N)c5nccnc45)C[C@@H](C)O2)C3)CCN1 (stereo partly drawn) [Example 36, 8-[(2R,6S)-2-methyl-6-[[5-(3-methylpiperazin-1-yl)isoindolin-2-yl]methyl]morpholin-4-yl]quinoxaline-5-carbonitrile]
9 nM	COCCN1CCN(c2ccc3c(c2)CN(C[C@H]2CN(c4ccc(C#N)c5nccnc45)C[C@@H](C)O2)C3)CC1 [Example 37, 8-[(2S,6R)-2-[[5-[4-(2-methoxyethyl)piperazin-1-yl]isoindolin-2-yl]methyl]-6-methyl-morpholin-4-yl]quinoxaline-5-carbonitrile]
5 nM	C[C@@H]1CN(c2ccc(C#N)c3nccnc23)C[C@H](CN2Cc3ccc(N4CCNC5(CC5)C4)cc3C2)O1 [Example 38, 8-[(2S,6R)-2-[[5-(4,7-diazaspiro[2.5]octan-7-yl)isoindolin-2-yl]methyl]-6-methyl-morpholin-4-yl]quinoxaline-5-carbonitrile]
4 nM	C[C@@H]1CN(c2ccc(C#N)c3nccnc23)C[C@H](CN2Cc3ccc(N4CCN5CCCCC5C4)cc3C2)O1 (stereo partly drawn) [Example 40, 8-[(2S,6R)-2-[[5-(1,3,4,6,7,8,9,9a-octahydropyrido[1,2-a]pyrazin-2-yl)isoindolin-2-yl]methyl]-6-methyl-morpholin-4-yl]quinoxaline-5-carbonitrile]
